According to ChEMBL document CHEMBL5550171, “Poly (ADP-ribose) polymerase (PARP) inhibitors as anticancer agents: An outlook on clinical progress, synthetic strategies, biological activity, and structure-activity relationship” (Eur J Med Chem, 2024):
pIC50: −log10 of the molar value.

Assays:
SK-OV-3 [1] = experiment: Inhibition of colony formation in human SK-OV-3 cells at 10 uM by crystal violet staining assay; format: functional
MDA-MB-231 [2] = experiment: Antiproliferative activity against human MDA-MB-231 cells assessed as reduction in cell growth; format: functional, cell-based
A2780 = experiment: Antiproliferative activity against human A2780 cells assessed as reduction in cell growth; format: functional, cell-based
SK-OV-3 [3] = experiment: Antiproliferative activity against human SK-OV-3 cells assessed as reduction in cell growth; format: functional, cell-based
HCT-116 [4] = experiment: Antiproliferative activity against human HCT-116 cells assessed as reduction in cell growth; format: functional, cell-based
MCF7 [5] = experiment: Antiproliferative activity against human MCF7 cells assessed as reduction in cell growth; format: functional, cell-based
CAPAN-1 [6] = experiment: Antiproliferative activity against human CAPAN-1 cells assessed as reduction in cell growth; format: functional, cell-based
[7] = target: T1, Poly [ADP-ribose] polymerase 1 (Homo sapiens, UniProt P09874); experiment: Inhibition of PARP1 (unknown origin)
A549 [8] = experiment: Antiproliferative activity against human A549 cells assessed as reduction in cell growth incubated for 24 hrs by MTT assay; format: functional, cell-based; conditions: A549, 24 h
[9] = target: Poly [ADP-ribose] polymerase 2 (Homo sapiens, UniProt Q9UGN5); experiment: Inhibition of PARP2 (unknown origin)
HepG2 = experiment: Antiproliferative activity against human HepG2 cells assessed as reduction in cell growth incubated for 24 hrs by MTT assay; format: functional, cell-based; conditions: HepG2, 24 h
HCT-116 [10] = experiment: Antiproliferative activity against human HCT-116 cells assessed as reduction in cell growth incubated for 24 hrs by MTT assay; format: functional, cell-based; conditions: HCT-116, 24 h
MCF7 [11] = experiment: Antiproliferative activity against human MCF7 cells assessed as reduction in cell growth incubated for 24 hrs by MTT assay; format: functional, cell-based; conditions: MCF7, 24 h
[12] = system: Panel NCI-60 (60 carcinoma cell lines); experiment: Cytotoxicity against human Panel NCI-60 (60 carcinoma cell lines); format: functional, cell-based
[13] = target: T1, Poly [ADP-ribose] polymerase 1; experiment: Inhibition of human PARP1
MDA-MB-436 [14] = experiment: Antiproliferative activity against human MDA-MB-436 cells; format: functional, cell-based
[15] = Cytotoxicity against human WI-38 cells assessed as reduction in cell viability incubated for 48 hrs by MTT assay; format: toxicity, cell-based
MDA-MB-231 [16] = experiment: Antiproliferative activity against human MDA-MB-231 cells assessed as reduction in cell viability at 1 uM after 24 hrs by CCK8 assay relative to control; format: functional
MDA-MB-231 [17] = experiment: Antiproliferative activity against human MDA-MB-231 cells assessed as reduction in cell viability at 10 uM after 24 hrs by CCK8 assay relative to control; format: functional
[18] = target: T2, Protein cereblon/Poly [ADP-ribose] polymerase 1 (Homo sapiens, UniProt P09874+Q96SW2); experiment: PROTAC activity at CRBN/PARP1 in human MDA-MB-231 cells assessed as […]; format: cell-based
Target sequence in this assay (P09874 whole entry): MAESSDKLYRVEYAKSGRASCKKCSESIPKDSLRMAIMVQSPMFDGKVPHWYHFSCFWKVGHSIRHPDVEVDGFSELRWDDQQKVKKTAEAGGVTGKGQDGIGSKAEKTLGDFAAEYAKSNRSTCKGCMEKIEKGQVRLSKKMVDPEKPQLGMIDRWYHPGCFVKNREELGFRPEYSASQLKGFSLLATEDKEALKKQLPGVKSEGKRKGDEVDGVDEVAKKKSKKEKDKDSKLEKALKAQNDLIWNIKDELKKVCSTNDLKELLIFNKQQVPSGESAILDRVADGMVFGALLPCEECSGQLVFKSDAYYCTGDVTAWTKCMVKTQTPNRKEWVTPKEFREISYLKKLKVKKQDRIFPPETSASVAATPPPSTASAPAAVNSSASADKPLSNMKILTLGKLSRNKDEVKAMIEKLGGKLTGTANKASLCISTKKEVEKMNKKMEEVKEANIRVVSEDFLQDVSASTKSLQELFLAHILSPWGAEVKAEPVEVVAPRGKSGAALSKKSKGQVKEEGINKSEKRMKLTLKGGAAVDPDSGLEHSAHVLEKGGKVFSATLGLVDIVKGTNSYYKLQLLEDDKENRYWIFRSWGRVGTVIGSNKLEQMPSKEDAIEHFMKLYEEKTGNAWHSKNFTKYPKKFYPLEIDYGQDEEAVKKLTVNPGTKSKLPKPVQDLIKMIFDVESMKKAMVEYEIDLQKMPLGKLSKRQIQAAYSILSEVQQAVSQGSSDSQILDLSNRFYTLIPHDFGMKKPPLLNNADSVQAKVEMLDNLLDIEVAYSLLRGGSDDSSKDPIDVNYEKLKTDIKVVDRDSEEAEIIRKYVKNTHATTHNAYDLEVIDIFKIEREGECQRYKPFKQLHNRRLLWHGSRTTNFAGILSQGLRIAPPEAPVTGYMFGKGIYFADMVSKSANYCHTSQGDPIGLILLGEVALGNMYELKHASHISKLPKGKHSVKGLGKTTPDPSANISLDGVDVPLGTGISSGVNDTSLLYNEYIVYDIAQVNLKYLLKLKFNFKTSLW
Target sequence in this assay (Q96SW2 whole entry): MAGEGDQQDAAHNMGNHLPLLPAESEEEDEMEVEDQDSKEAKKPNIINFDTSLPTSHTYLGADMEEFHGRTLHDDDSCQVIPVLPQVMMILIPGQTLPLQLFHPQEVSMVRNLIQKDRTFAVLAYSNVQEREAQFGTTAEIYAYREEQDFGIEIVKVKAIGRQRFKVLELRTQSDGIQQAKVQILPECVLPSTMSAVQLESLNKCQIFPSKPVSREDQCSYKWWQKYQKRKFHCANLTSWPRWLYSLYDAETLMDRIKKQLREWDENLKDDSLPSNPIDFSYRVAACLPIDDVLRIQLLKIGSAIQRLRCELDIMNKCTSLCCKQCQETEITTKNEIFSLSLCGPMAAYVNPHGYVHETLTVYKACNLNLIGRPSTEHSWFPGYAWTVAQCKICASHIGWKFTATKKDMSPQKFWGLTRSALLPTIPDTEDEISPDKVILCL

MDA-MB-231 [19] = experiment: Antitumor activity against human MDA-MB-231 cells xenografted in mouse assessed as tumor growth inhibition at 40 mg/kg, po relative to control; format: functional; conditions: read-out: TGI
[20] = target: T2, Protein cereblon/Poly [ADP-ribose] polymerase 1; experiment: PROTAC activity at CRBN/PARP1 in human MDA-MB-231 cells assessed as induction of PARP1 degradation at 0.1 uM relative to control; format: cell-based
Target sequence in this assay (P09874 2-1014 limits assumed): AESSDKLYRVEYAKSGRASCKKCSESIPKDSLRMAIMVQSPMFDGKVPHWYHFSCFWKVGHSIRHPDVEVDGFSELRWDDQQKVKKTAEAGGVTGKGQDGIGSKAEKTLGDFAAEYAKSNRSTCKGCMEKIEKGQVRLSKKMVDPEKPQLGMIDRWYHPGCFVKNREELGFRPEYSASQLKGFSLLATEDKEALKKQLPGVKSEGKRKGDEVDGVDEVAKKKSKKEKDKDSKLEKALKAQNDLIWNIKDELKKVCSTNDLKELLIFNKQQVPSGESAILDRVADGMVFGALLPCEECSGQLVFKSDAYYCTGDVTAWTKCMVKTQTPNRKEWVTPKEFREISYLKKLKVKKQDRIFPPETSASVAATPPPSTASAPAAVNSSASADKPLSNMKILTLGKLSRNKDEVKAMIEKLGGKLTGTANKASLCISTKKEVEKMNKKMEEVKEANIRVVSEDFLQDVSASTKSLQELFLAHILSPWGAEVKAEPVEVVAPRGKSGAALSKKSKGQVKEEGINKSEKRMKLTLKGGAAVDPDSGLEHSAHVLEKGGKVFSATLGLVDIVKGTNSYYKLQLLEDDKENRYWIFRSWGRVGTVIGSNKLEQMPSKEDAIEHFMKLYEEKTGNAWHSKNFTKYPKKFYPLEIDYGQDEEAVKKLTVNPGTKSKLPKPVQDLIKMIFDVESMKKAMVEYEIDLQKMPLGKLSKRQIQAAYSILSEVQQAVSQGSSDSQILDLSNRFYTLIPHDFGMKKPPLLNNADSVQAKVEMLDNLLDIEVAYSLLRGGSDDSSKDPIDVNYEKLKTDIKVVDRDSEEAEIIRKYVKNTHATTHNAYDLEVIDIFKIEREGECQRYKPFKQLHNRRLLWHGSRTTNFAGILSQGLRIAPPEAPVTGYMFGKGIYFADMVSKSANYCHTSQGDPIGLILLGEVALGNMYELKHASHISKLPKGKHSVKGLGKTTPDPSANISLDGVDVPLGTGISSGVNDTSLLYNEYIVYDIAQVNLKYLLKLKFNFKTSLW
Target sequence in this assay (Q96SW2 whole entry partner): as the sequence (Q96SW2 whole entry) above

MDA-MB-231 [21] = experiment: Antiproliferative activity against human MDA-MB-231 cells assessed as reduction in cell viability after 24 hrs by CCK8 assay; format: functional, cell-based; conditions: MDA-MB-231, 24 h
[22] = target: Protein mono-ADP-ribosyltransferase PARP3 (Homo sapiens, UniProt Q9Y6F1); experiment: Inhibition of PARP3 (unknown origin)
MDA-MB-231 [23] = experiment: Cytotoxicity against human MDA-MB-231 cells assessed as reduction in cell viability measured for 48 hrs by MTT assay; format: functional, cell-based; conditions: MDA-MB-231, 48 h
MCF7 [24] = experiment: Cytotoxicity against human MCF7 cells assessed as reduction in cell viability measured for 48 hrs by MTT assay; format: functional, cell-based; conditions: MCF7, 48 h
MCF7 [25] = experiment: Antiproliferative activity against human MCF7 cells assessed as reduction in cell viability at 10 uM incubated for 24 hrs by MTT assay; format: functional
A549 [26] = experiment: Antiproliferative activity against human A549 cells assessed as reduction in cell viability incubated for 72 hrs by MTT assay; format: functional, cell-based; conditions: A549, 72 h
IGROV-1 = experiment: Growth inhibition of human IGROV-1 cells; format: functional
SNB-75 = experiment: Growth inhibition of human SNB-75 cells; format: functional
MCF7 [27] = experiment: Antiproliferative activity against human MCF7 cells assessed as reduction in cell viability incubated for 72 hrs by MTT assay; format: functional, cell-based; conditions: MCF7, 72 h
MCF7 [28] = experiment: Antiproliferative activity against human MCF7 cells assessed as reduction in cell viability at 10 uM incubated for 48 hrs by MTT assay; format: functional
MDA-MB-468 = experiment: Growth inhibition of human MDA-MB-468 cells; format: functional
KB 3-1 = experiment: Antiproliferative activity against human KB 3-1 cells assessed as reduction in cell viability incubated for 72 hrs by MTT assay; format: functional, cell-based; conditions: KB 3-1, 72 h
SK-OV-3 [29] = experiment: Antiproliferative activity against human SK-OV-3 cells assessed as reduction in cell viability incubated for 72 hrs by MTT assay; format: functional, cell-based; conditions: SK-OV-3, 72 h
HCT-116 [30] = experiment: Antiproliferative activity against human HCT-116 cells assessed as reduction in cell viability incubated for 72 hrs by MTT assay; format: functional, cell-based; conditions: HCT-116, 72 h
RPMI-8226 = experiment: Growth inhibition of human RPMI-8226 cells; format: functional
Jurkat = experiment: Antiproliferative activity against human Jurkat cells assessed as reduction in cell viability incubated for 72 hrs by MTT assay; format: functional, cell-based
LOX IMVI = experiment: Growth inhibition of human LOX IMVI cells; format: functional
NCI-H226 = experiment: Growth inhibition of human NCI-H226 cells; format: functional
HCT-116 [31] = experiment: Growth inhibition of human HCT-116 cells; format: functional
MCF7 [32] = experiment: Cytotoxicity against human MCF7 cells harbouring BRCA1 assessed as inhibition of cell growth measured after 72 hrs by MTT assay; format: functional, cell-based; conditions: MCF7, 72 h
[33] = Cytotoxicity against mouse BALB/3T3 cells assessed as reduction in cell viability incubated for 72 hrs by MTT assay; format: toxicity, cell-based
MCF7 [34] = experiment: Antiproliferative activity against human MCF7 cells assessed as reduction in cell viability at 10 uM incubated for […] by MTT assay; format: functional
A549 [35] = experiment: Induction of apoptosis in human A549 cells at 1 uM incubated for 48 hrs by Annexin V-FITC/PI staining based flow cytometry analysis relative to control; format: functional
A549 [36] = experiment: Antiproliferative activity against human A549 cells assessed as reduction in cell growth measured for 72 hrs by MTT assay; format: functional, cell-based; conditions: A549, 72 h
A549 [37] = experiment: Induction of apoptosis in human A549 cells at 4 uM incubated for 48 hrs by Annexin V-FITC/PI staining based flow cytometry analysis relative to control; format: functional
A549 [38] = experiment: Induction of apoptosis in human A549 cells at 2 uM incubated for 48 hrs by Annexin V-FITC/PI staining based flow cytometry analysis relative to control; format: functional
HCC1937 = experiment: Antiproliferative activity against human HCC1937 cells assessed as reduction in cell viability incubated for 72 hrs by CCK-8 assay; format: functional, cell-based; conditions: HCC1937, 72 h
MDA-MB-231 [39] = experiment: Antiproliferative activity against human MDA-MB-231 cells assessed as reduction in cell growth incubated for 72 hrs by CCK-8 assay; format: functional, cell-based; conditions: MDA-MB-231, 72 h
CAPAN-1 [40] = experiment: Antiproliferative activity against human CAPAN-1 cells assessed as reduction in cell viability incubated for 72 hrs by CCK-8 assay; format: functional, cell-based; conditions: CAPAN-1, 72 h
MDA-MB-436 [41] = experiment: Antiproliferative activity against human MDA-MB-436 cells assessed as reduction in cell viability incubated for 72 hrs by CCK-8 assay; format: functional, cell-based; conditions: MDA-MB-436, 72 h
K562 = experiment: Antiproliferative activity against human K562 cells assessed as reduction in cell growth incubated for 72 hrs by CCK-8 assay; format: functional, cell-based; conditions: K562, 72 h
MCF7 [42] = experiment: Antiproliferative activity against human MCF7 cells assessed as reduction in cell growth incubated for 72 hrs by CCK-8 assay; format: functional, cell-based; conditions: MCF7, 72 h
A549 [43] = experiment: Antiproliferative activity against human A549 cells assessed as reduction in cell growth incubated for 72 hrs by CCK-8 assay; format: functional, cell-based; conditions: A549, 72 h
MX1 = experiment: Antiproliferative activity against human MX1 cells assessed as cell growth inhibition; format: functional, cell-based
MCF7 [44] = experiment: Antiproliferative activity against human MCF7 cells assessed as cell growth inhibition; format: functional, cell-based

T1 sequence (P09874 whole entry): as the sequence (P09874 whole entry) above
Poly [ADP-ribose] polymerase 2, sequence (Q9UGN5 whole entry): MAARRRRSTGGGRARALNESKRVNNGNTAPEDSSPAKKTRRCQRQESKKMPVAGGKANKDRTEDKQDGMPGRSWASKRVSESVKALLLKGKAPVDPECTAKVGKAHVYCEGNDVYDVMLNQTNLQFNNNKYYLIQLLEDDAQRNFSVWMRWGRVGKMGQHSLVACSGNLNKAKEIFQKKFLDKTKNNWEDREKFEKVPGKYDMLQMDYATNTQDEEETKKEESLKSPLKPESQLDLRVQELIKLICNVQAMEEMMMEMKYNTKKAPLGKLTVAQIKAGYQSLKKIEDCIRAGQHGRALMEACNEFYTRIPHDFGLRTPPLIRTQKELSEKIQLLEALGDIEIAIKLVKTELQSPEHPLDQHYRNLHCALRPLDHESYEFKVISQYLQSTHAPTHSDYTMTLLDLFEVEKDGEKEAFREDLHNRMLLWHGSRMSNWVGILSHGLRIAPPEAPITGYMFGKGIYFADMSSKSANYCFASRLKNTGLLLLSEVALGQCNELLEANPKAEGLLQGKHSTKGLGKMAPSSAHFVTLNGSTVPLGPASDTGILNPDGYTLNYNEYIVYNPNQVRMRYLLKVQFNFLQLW
Protein mono-ADP-ribosyltransferase PARP3, sequence (Q9Y6F1 whole entry): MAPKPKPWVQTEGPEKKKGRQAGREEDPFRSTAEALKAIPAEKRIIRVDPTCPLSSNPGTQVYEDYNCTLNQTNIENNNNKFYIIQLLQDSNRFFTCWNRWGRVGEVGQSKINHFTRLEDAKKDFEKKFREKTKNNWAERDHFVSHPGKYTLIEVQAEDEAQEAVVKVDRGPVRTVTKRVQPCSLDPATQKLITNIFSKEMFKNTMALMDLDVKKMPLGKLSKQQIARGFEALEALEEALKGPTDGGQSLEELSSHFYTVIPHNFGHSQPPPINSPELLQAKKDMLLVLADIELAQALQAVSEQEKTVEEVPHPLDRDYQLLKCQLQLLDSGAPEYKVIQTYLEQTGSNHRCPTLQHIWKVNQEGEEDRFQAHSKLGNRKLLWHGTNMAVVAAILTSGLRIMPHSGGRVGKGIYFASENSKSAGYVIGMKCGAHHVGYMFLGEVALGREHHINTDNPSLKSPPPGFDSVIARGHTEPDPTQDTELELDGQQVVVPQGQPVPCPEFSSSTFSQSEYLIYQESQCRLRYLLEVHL

`CCNC(=S)N/N=C\c1ccc(-c2nc3c(oc4ccccc43)c(=O)[nH]2)cc1` gave an inhibition at 10 µM (SK-OV-3 [1]) of 78.1%, a pIC50 (MDA-MB-231 [2]) of 4.32 and a pIC50 (A2780) of 4.61. The pIC50 (SK-OV-3 [3]) was 5.30, the pIC50 (HCT-116 [4]) was 5.06 and the pIC50 (MCF7 [5]) was 4.42.
With `O=C(NCCc1ccc(F)cc1)c1cc(Cc2n[nH]c(=O)c3ccccc23)ccc1F` the pIC50 (CAPAN-1 [6]) was 5.12 and the pIC50 [7] was 8.49.
With `O=C1CCc2cc(-c3ccccc3F)ccc2C2(CCCCC2)N1` the pIC50 (A549 [8]) was 5.44, the pIC50 [9] was 7.52 and the pIC50 (HepG2) was 5.70. For the same compound, the pIC50 (HCT-116 [10]) was 5.40 and the pIC50 (MCF7 [11]) was 5.37.
For `CC(=O)c1nnn(-c2ccc(Br)cc2)c1C`, the pIC50 [12] was 7.75.
Compound `Cc1cc(C)n(S(=O)(=O)c2ccc3[nH]c(=O)c(=O)[nH]c3c2)n1` has a pIC50 [13] of 8.36, a pIC50 (MDA-MB-436 [14]) of 5.59 and an IC50 at 48 h [15] of 81.7 µM.
In the case of `NC(=O)c1cccc2cn(-c3ccc(C4CCCN(CCC5CCN(CCC6CCN(c7ccc8c(c7)C(=O)N(C7CCC(=O)NC7=O)C8=O)CC6)CC5)C4)cc3)nc12` (centres undefined), the Activity (MDA-MB-231 [16]) was 65.84%, the Activity (MDA-MB-231 [17]) was 11.78% and the DC50 [18] was 0.0252 µM. The inhibition in vivo at 40 mg/kg (MDA-MB-231 [19]) was 71.4%, the Activity [20] was 88% and the pIC50 (MDA-MB-231 [21]) was 5.98.
`O=C(CCN1CCOCC1)Nc1ccc(-c2nc3cc(Cl)ccc3o2)cc1` gave a pIC50 [22] of 7.15, a pIC50 (MDA-MB-231 [23]) of 5.21 and a pIC50 (MCF7 [24]) of 5.22.
Work on `CCOC(=O)c1ccc(NC(=O)CS/C(=C\C(=O)c2sc(Nc3ccccn3)nc2C)c2ccccc2F)cc1` yielded an Activity (MCF7 [25]) of 19.9%, a pIC50 (A549 [26]) of 5.09 and a pIC50 [9] of 6.14. For the same compound, the GI50 (IGROV-1) was 12.1 µM, the GI50 (SNB-75) was 3.58 µM and the pIC50 (MCF7 [27]) was 5.55. It also gave an Activity (MCF7 [28]) of 43%, a GI50 (MDA-MB-468) of 4.24 µM and a pIC50 (KB 3-1) of 5.12. It also gave a pIC50 [7] of 5.64, a pIC50 (SK-OV-3 [29]) of 5.10 and a pIC50 (HCT-116 [30]) of 5.21. It also gave a GI50 (RPMI-8226) of 8.29 µM, a pIC50 (Jurkat) of 5.27 and a GI50 (LOX IMVI) of 0.312 µM. For the same compound, the GI50 (NCI-H226) was 2.52 µM, the GI50 (HCT-116 [31]) was 23 µM and the pIC50 (MCF7 [32]) was 6.15. It also gave an IC50 at 72 h [33] of 7.79 µM and an Activity (MCF7 [34]) of 90%.
In the case of `O=C1CCN(Cc2cn(-c3ccccc3F)nn2)C2(CCCCC2)c2ccccc21`, the Activity (A549 [35]) was 8%, the pIC50 (A549 [36]) was 5.71 and the Activity (A549 [37]) was 19%. It also gave an Activity (A549 [38]) of 10.9%.
In the case of `O=C(CCCc1ccc(N(CCCl)CCCl)cc1)N1CCN(C(=O)c2cc(Cc3n[nH]c(=O)c4ccccc34)ccc2F)CC1`, the pIC50 (HCC1937) was 6.74, the pIC50 (MDA-MB-231 [39]) was 4.27 and the pIC50 (CAPAN-1 [40]) was 7.07. It also gave a pIC50 (MDA-MB-436 [41]) of 7.89, a pIC50 (K562) of 4.98 and a pIC50 (MCF7 [42]) of 4.51. It also gave a pIC50 (A549 [43]) of 5.79.
With `O=C1NCC(c2ccc(-c3ccc(C(F)(F)F)cc3)cc2)Nc2ccccc21` (centres undefined) the pIC50 (MX1) was 4.61 and the pIC50 (MCF7 [44]) was 4.42.
